Results on one substance are retold here after article PMC11187126, “Structure and dynamics of the pyroglutamylated RF-amide peptide QRFP receptor GPR103” (Nature Communications, 2024).

Where two headings read alike, the source gives them in different places. No end group written: not given here.

In general, EC50 refers to the concentration at which the effect is half-maximal. The low end stands for greater potency, the high end for weaker potency.

The experiment addresses T1, GPR103 Y214^5.38A (Homo sapiens, UniProt Q96P65, Y214A).
T1 construct: we used human full-length QRFPR-encoding plasmids; expressed in transfected cells; host or cells: HEK293 cells, pCAGGS vector
T1 sequence (Q96P65 1-431 Y214A): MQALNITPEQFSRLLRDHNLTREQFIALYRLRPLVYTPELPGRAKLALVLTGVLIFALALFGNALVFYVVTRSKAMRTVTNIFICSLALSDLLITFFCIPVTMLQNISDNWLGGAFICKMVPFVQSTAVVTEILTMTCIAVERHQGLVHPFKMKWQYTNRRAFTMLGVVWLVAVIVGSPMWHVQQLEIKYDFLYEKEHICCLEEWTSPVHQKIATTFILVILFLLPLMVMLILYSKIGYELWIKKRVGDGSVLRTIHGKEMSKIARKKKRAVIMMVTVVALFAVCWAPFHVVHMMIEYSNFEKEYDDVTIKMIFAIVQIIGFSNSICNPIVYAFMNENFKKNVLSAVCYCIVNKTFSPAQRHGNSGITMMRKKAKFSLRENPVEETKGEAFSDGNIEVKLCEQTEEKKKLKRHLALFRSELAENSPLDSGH
The experiment is described as follows: TGFα shedding assay; Exp. level WT (1:50). Type of experiment: cell-based. The protocol: For the TGFα shedding assay and the flow cytometry analysis, we used human full-length QRFPR-encoding plasmids. Specifically, GPR103 was N-terminally modified with an HA signal sequence followed by a FLAG epitope and then a flexible linker ([…]; the FLAG epitope is underlined) and inserted into the pCAGGS vector. Plasmid encoding GPR103 mutants were generated using Quickchange Site-Directed Mutagensis kit (Agilent).
The TGFα shedding assay was performed as described previously with minor modifications. Plasmid transfection was performed in a 6-well plate with a mixture of 500 ng (per well in a 6-well plate) AP-TGFα-encoding plasmid and 200 ng GPR103-encoding plasmid. After 1-day culture, the transfected cells were harvested by trypsinization, pelleted by centrifugation at 190 × g for 5 min, and washed once with 5 mM HEPES (pH 7.4)-containing Hank’s Balanced Salt Solution (HBSS). After centrifugation, the cells were resuspended in 8 mL of the HEPES-containing HBSS. The cell suspension was seeded in a 96-well culture plate (cell plate) at a volume of 90 μL (per well hereafter) and incubated in a 37 °C incubator with 5% CO2 for 30 min. […] After spinning the cell plates at 190 × g for 2 min, 80 μL of conditioned media was transferred to an empty 96-well plate (conditioned media (CM) plate). Then, 80 μL of AP reaction solution (10 mM p-nitrophenylphosphate (p-NPP), 120 mM Tris-HCl (pH 9.5), 40 mM NaCl, and 10 mM MgCl2) was dispensed into the cell plates and the CM plates. Absorbance at 405 nm of the plates was measured using a microplate reader (SpectraMax 340 PC384, Molecular Devices) before and after 1-h incubation at room temperature. Ligand-induced AP-TGFα release was calculated by subtracting spontaneous AP-TGFα release signal from ligand-induced AP-TGFα release signal. The AP-TGFα release signals were fitted to a four-parameter sigmoidal concentration–response curve, using the Prism 10 software (GraphPad Prism). For each replicate experiment, the pEC50 parameter (negative logarithmic values of EC50 values) of the individual GPR103 mutants were normalized to that of the wild-type GPR103 performed in parallel, and resulting ∆pEC50 values were used to denote ligand response activity of the mutants. […]
Exp. le vel: WT (1:5 0)Exp. le vel: WT (1:5 0)Exp. le vel: WT (1:5 0)Exp. le vel: WT (1:2 0)Exp. le vel: WT (1:2 0)Exp. le vel: WT (1:1 0) […]
L1 4N - t e r mA F2 5N - t e r mA I 2 6N - t e r mA Y 2 9N - t e r mA C 9 82 .5 7A T10 22 .6 1A Exp . l eve l: WT (1 :5)Exp . l evel : >WT (1 :1)Exp. le vel: WT (1:2 0)Exp. le vel: WT (1:2 0)Exp. le vel: WT (1:5 0)Exp . l eve l: WT (1 :1) […]
Exp. le vel: WT (1:1 0)Exp. le vel: WT (1:2 0) C 1 1 83 .2 5AExp. le vel: WT (1:5 0)Exp. le vel: WT (1:5 0)Exp. le vel: WT (1:2 0)Exp . l eve l: WT (1 :5) […]
Exp. le vel: WT (1:5 0)Exp. le vel: WT (1:1 0)Exp. le vel: WT (1:5 0) E203ECL2AExp . l evel : >WT (1 :1)Exp. le vel: WT (1:5 0)Exp. le vel: WT (1:5 0) […]
Exp . l eve l: WT (1 :1) F28Exp. le vel: WT (1:5 0) C 2 8 56 .4 7AExp. le vel: WT (1:2 0) WExp. le vel: WT (1:2 0) F28Exp. le vel: WT (1:5 0)Exp . l evel : >WT (1 :1) […]
Exp. le vel: WT (1:5 0)Exp. le vel: WT (1:5 0) C 3 2 77 .4 8AExp . l eve l: WT (1 :5)Exp . l evel : >WT (1 :1)Exp . l evel : >WT (1 :1) […]
Suppl eme nt ary Figure 1 | Mutational analysis of GPR103. […]
mutants. Data are presented as mean values ± SEM, normally n=3-5; dots), each performed in triplicate. b-d Cell-surface expression (b) and QRFP26-in-duced activation of GPR103 (c, d) were analyzed by the flow cytometry and the TGFα shedding assay, respectively. From the concentration–response curves (a), Emax (c) and ΔpEC50 (d) values relative to the wild type were calculated. Colors in the mutant bars indicate an expression level matching to that of titrated wild type. Statistical analyses were performed using the ordinary one-way ANOVA followed by Dunnett tests with the expression-matched […]

As to TSGPLGNLAEELNGYSRKKGGFSFRF-NH2 [QRFP26], the Emax (Exp. #1) worked out at 18.32 % WT; the Emax (Exp. #2) turned out to be 10.80 % WT; the Emax (Exp. #3) is 19.27 % WT; the Emax (mean, read-out: Emax) turned out to be 16.1%; the Emax (n = 3, read-out: Emax) came to 16.6 ± 2.2%. In addition, for the setting “n = 3”, the 50% effective concentration (EC50) was 0.105 µM.
